Measurements: US12655116B2, “Substituted isophthalic acid diamides” (Bayer Aktiengesellschaft, priority 2020, dated 2026)

How the values were obtained:
[1] = tested on: ALOMY; test: Post-emergence herbicidal action against ALOMY; format: in vivo, Alopecurus myosuroides; settings: Alopecurus myosuroides, 504 h, visual assessment about 3 weeks after treatment vs untreated controls
Outline: (§1)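 A WP or EC formulation diluted in water with 0.2% wetting agent was sprayed at 600 to 800 l/ha onto one-leaf-stage plants grown in sandy loam. About 3 weeks later, action was rated visually in percent, 100% being dead plants.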

[2] = tested on: ABUTH; test: Pre-emergence herbicidal action against ABUTH; format: in vivo, Abutilon theophrasti
Outline: (§2)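 Greenhouse pots of sandy loam held seeds covered with soil, onto which the compound was applied before emergence. An aqueous suspension or emulsion of WP or EC was used at 600 to 800 l/ha with 0.2% wetting agent. Percent damage was judged visually at 3 weeks.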

[3] = tested on: SETVI; test: Post-emergence herbicidal action against SETVI; format: in vivo, Setaria viridis; settings: dosage 20 g/ha
Outline: as §1

[4] = tested on: VIOTR; test: Post-emergence herbicidal action against VIOTR; format: in vivo, Viola tricolor
Outline: as §1

[5] = tested on: AVEFA; test: Pre-emergence herbicidal action against AVEFA; format: in vivo, Avena fatua; settings: pre-emergence
Outline: as §2

[6] = tested on: ALOMY; test: Pre-emergence herbicidal action against ALOMY; format: in vivo, Alopecurus myosuroides; settings: pre-emergence
Outline: as §2

[7] = tested on: ECHCG; test: Post-emergence herbicidal action against ECHCG; format: in vivo, Echinochloa crus-galli; settings: dosage 20 g/ha
Outline: as §1

[8] = tested on: VIOTR; test: Pre-emergence herbicidal action against VIOTR; format: in vivo, Viola tricolor
Outline: as §2

[9] = tested on: PHBPU; test: Post-emergence herbicidal action against PHBPU; format: in vivo, Pharbitis purpurea; settings: Ipomoea purpurea, 504 h
Outline: as §1

[10] = tested on: AMARE; test: Pre-emergence herbicidal action against AMARE; format: in vivo, Amaranthus retroflexus
Outline: as §2

[11] = tested on: SETVI; test: Pre-emergence herbicidal action against SETVI; format: in vivo, Setaria viridis; settings: dosage 80 g/ha
Outline: as §2

[12] = tested on: VERPE; test: Post-emergence herbicidal action against VERPE; format: in vivo, Veronica persica; settings: Veronica persica, 504 h, 20 g/ha
Outline: as §1

[13] = tested on: LOLRI; test: Pre-emergence herbicidal action against LOLRI; format: in vivo, Lolium rigidum; settings: 80 g/ha
Outline: as §2

[14] = tested on: AMARE; test: Post-emergence herbicidal action against AMARE; format: in vivo, Amaranthus retroflexus; settings: 20 g/ha, visual assessment about 3 weeks after treatment, 100% = plants have died, 0% = like control plants
Outline: as §1

[15] = tested on: MATIN; test: Pre-emergence herbicidal action against MATIN; format: in vivo, Matricaria inodora
Outline: as §2

[16] = tested on: POLCO; test: Pre-emergence herbicidal action against POLCO; format: in vivo, Polygonum convolvulus; settings: dosage 80 g/ha
Outline: as §2

[17] = tested on: ABUTH; test: Post-emergence herbicidal action against ABUTH; format: in vivo, Abutilon theophrasti; settings: visual assessment about 3 weeks after treatment vs untreated controls
Outline: as §1

[18] = tested on: VERPE; test: Pre-emergence herbicidal action against VERPE; format: in vivo, Veronica persica; settings: Veronica persica, 504 h, dosage 80 g/ha
Outline: as §2

[19] = tested on: ECHCG; test: Pre-emergence herbicidal action against ECHCG; format: in vivo, Echinochloa crus-galli
Outline: as §2

[20] = tested on: MATIN; test: Post-emergence herbicidal action against MATIN; format: in vivo, Matricaria inodora
Outline: as §1

[21] = tested on: DIGSA; test: Post-emergence herbicidal action against DIGSA; format: in vivo, Digitaria sanguinalis; settings: 20 g/ha
Outline: as §1

[22] = tested on: PHBPU; test: Pre-emergence herbicidal action against PHBPU; format: in vivo, Pharbitis purpurea; settings: dosage 80 g/ha
Outline: as §2

[23] = tested on: DIGSA; test: Pre-emergence herbicidal action against DIGSA; format: in vivo, Digitaria sanguinalis
Outline: as §2

[24] = Tripleurospermum inodorum, 504 h, dosage 20 g/ha
[25] = 80 g/ha, scored visually after 3 weeks vs untreated controls (100% = plants have died, 0% = like control plants)

CCCNC(=O)c1c(C(F)F)ccc(C(=O)Nc2nnnn2C)c1C [Example 1-345]
pest or weed control at 5 g/ha ([1]; dosage 5 g/ha): 80%
pest or weed control at 20 g/ha ([1]; dosage 20 g/ha): 90%
pest or weed control at 80 g/ha ([2]; Abutilon theophrasti, 504 h, 80 g/ha, scored visually after 3 weeks vs untreated controls (100% = plants have died, 0% = like control plants)): 100%
pest or weed control at 20 g/ha ([2]; Abutilon theophrasti, 504 h, dosage 20 g/ha, scored visually after 3 weeks vs untreated controls, 100% = plants have died, 0% = like control plants, read-out: Pre-emergence action against ABUTH (herbicidal activity in percent)): 100%
pest or weed control at 20 g/ha ([3]; Setaria viridis, 504 h): 90%
pest or weed control at 5 g/ha ([4]; Viola tricolor, 504 h, 5 g/ha): 90%
pest or weed control at 20 g/ha ([4]; Viola tricolor, 504 h, 20 g/ha): 100%
pest or weed control at 80 g/ha ([5]; Avena fatua, 504 h, 80 g/ha): 90%
pest or weed control at 20 g/ha ([5]; Avena fatua, 504 h, 20 g/ha, scored visually after 3 weeks, 100% = plants have died, 0% = like control plants): 80%
pest or weed control at 80 g/ha ([6]; Alopecurus myosuroides, 504 h, 80 g/ha, scored visually after 3 weeks vs untreated controls (100% = plants have died, 0% = like control plants)): 90%
pest or weed control at 20 g/ha ([6]; Alopecurus myosuroides, 504 h, 20 g/ha, scored visually after 3 weeks, 100% = plants have died, 0% = like control plants): 80%
pest or weed control at 20 g/ha ([7]; Echinochloa crus-galli, 504 h): 90%
pest or weed control at 80 g/ha ([8]; Viola tricolor, 504 h, dosage 80 g/ha): 100%
pest or weed control at 5 g/ha ([9]; dosage 5 g/ha): 80%
pest or weed control at 20 g/ha ([9]; dosage 20 g/ha): 80%
pest or weed control at 20 g/ha ([10]; Amaranthus retroflexus, 504 h, 20 g/ha, scored visually after 3 weeks vs untreated controls, 100% = plants have died, 0% = like control plants): 100%
pest or weed control at 80 g/ha ([10]; Amaranthus retroflexus, 504 h, 80 g/ha, scored visually after 3 weeks vs untreated controls, 100% = plants have died, 0% = like control plants): 100%
pest or weed control at 80 g/ha ([11]; Setaria viridis, 504 h): 100%
pest or weed control at 20 g/ha [12]: 90%
pest or weed control at 80 g/ha ([13]; Lolium rigidum, 504 h): 80%
pest or weed control at 20 g/ha ([14]; Amaranthus retroflexus, 504 h): 100%
pest or weed control at 20 g/ha [15, 24]: 100%
pest or weed control at 80 g/ha ([15]; Tripleurospermum inodorum, 504 h, dosage 80 g/ha): 100%
pest or weed control at 80 g/ha ([16]; Fallopia convolvulus, 504 h): 90%
pest or weed control at 5 g/ha ([17]; Abutilon theophrasti, 504 h, dosage 5 g/ha): 80%
pest or weed control at 20 g/ha ([17]; Abutilon theophrasti, 504 h, dosage 20 g/ha): 90%
pest or weed control at 80 g/ha [18]: 80%
pest or weed control at 20 g/ha ([19]; Echinochloa crus-galli, 504 h, 20 g/ha): 90%
pest or weed control at 80 g/ha ([19]; Echinochloa crus-galli, 504 h, 80 g/ha): 100%
pest or weed control at 20 g/ha [20, 24]: 80%

CCn1nnnc1NC(=O)c1ccc(C(F)(F)F)c(C(=O)NCC2CC2)c1Cl [Example 2-132]
Pre-emergence action against ABUTH (herbicidal activity) [2, 25]: 100%
Pre-emergence action against ABUTH (herbicidal activity in percent) ([2]; dosage 20 g/ha, scored visually after 3 weeks vs untreated controls, 100% = plants have died, 0% = like control plants): 100%
Post-emergence action against SETVI in % [3]: 80%
Post-emergence action against VIOTR in % ([4]; 20 g/ha): 90%
Pre-emergence action against AVEFA in % ([5]; 80 g/ha): 90%
Pre-emergence action against ALOMY (herbicidal activity) [6, 25]: 90%
Post-emergence action against ECHCG in % [7]: 90%
Post-emergence action against DIGSA [21]: 80%
Pre-emergence action against VIOTR in % ([8]; dosage 20 g/ha): 100%
Pre-emergence action against VIOTR in % ([8]; dosage 80 g/ha): 100%
Pre-emergence action against AMARE in % ([10]; 20 g/ha, scored visually after 3 weeks vs untreated controls, 100% = plants have died, 0% = like control plants): 100%
Pre-emergence action against AMARE in % [10, 25]: 100%
Pre-emergence action against SETVI in % [11]: 100%
Pre-emergence action against LOLRI in % [13]: 90%
Post-emergence action at 20 g/ha against AMARE in % [14]: 90%
Pre-emergence action against MATIN in % ([15]; dosage 20 g/ha): 100%
Pre-emergence action against MATIN in % ([15]; dosage 80 g/ha): 100%
Pre-emergence action against POLCO in % [16]: 80%
Post-emergence action against ABUTH in % ([17]; dosage 20 g/ha): 80%
Pre-emergence action against PHBPU in % [22]: 90%
Pre-emergence action against ECHCG in % ([19]; 80 g/ha): 100%
Pre-emergence action against DIGSA in % ([23]; dosage 20 g/ha): 80%
Pre-emergence action against DIGSA in % ([23]; dosage 80 g/ha): 100%
Post-emergence action against MATIN in % ([20]; dosage 5 g/ha): 80%
Post-emergence action against MATIN in % ([20]; dosage 20 g/ha): 80%

CCn1nnnc1NC(=O)c1ccc(C(F)(F)F)c(C(=O)NCC(F)F)c1Br [Example 2-212]
Pre-emergence action against ABUTH (herbicidal activity) [2, 25]: 100%
Pre-emergence action against AVEFA in % ([5]; 80 g/ha): 90%
Pre-emergence action against ALOMY (herbicidal activity) [6, 25]: 100%
Post-emergence action against ECHCG in % [7]: 80%
Post-emergence action against DIGSA [21]: 100%
Pre-emergence action against VIOTR in % ([8]; dosage 80 g/ha): 100%
Pre-emergence action against AMARE in % [10, 25]: 100%
Pre-emergence action against SETVI in % [11]: 100%
Pre-emergence action against LOLRI in % [13]: 90%
Pre-emergence action against MATIN in % ([15]; dosage 80 g/ha): 100%
Pre-emergence action against POLCO in % [16]: 80%
Pre-emergence action against PHBPU in % [22]: 80%
Pre-emergence action against ECHCG in % ([19]; 80 g/ha): 90%
Pre-emergence action against DIGSA in % ([23]; dosage 80 g/ha): 100%
